Data on six compounds can be found in article PMC6273065, “Synthesis, Molecular Modelling and Biological Evaluation of Novel Heterodimeric, Multiple Ligands Targeting Cholinesterases and Amyloid Beta” (Molecules, 2016).

Where two headings read alike, the source gives them in different places. Marks after values point to notes of the source that are not given here.

Data set [1] addresses T1, EeAChE (Electrophorus electricus, UniProt O42275).
T1 construct: purchased Sigma–Aldrich
The note with it: cited from earlier work.

In data set [2] the target is T2, EqBuChE (Equus caballus, UniProt P81908).
T2 construct: BuChE from equine serum (EqBuChE, Sigma–Aldrich); purchased Sigma–Aldrich; host or cells: equine serum
T2 sequence (P81908 whole entry): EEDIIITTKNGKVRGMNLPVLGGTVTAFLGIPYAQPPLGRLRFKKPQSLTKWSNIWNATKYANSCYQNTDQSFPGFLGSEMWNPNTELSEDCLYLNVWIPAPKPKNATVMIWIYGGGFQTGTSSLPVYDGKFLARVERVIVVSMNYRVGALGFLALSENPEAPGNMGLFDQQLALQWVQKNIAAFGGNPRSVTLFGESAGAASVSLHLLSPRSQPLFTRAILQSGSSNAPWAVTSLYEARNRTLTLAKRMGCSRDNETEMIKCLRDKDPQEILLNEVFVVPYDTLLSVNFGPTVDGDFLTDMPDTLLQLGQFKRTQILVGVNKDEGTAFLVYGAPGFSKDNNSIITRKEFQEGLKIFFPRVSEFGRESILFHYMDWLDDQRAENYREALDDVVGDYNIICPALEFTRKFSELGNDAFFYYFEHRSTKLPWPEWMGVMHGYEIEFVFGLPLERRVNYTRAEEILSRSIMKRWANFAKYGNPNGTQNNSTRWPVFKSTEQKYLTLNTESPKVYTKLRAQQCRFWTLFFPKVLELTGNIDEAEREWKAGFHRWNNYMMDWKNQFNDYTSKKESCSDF
The note with it: % inhibition at 50 μM lower than 50%; cited from earlier work.

Data set [3] concerns the target T3, Aβ1–42 (Homo sapiens, UniProt P05067).
T3 construct: Recombinant human HFIP-pretreated Aβ1–42 peptide; purchased Merck Millipore Lot number 2387442
Further details: method as in PMID 26032855. The note with it: 10 µM compound, self-induced; mean ± SD; cited from earlier work.

Data set [4] relates to Aβ12–23. Conditions: 50 µM compound, self-induced Aβ12–23 aggregation; mean ± SD; cited from earlier work.
The target of data set [5] is T1, EeAChE. Nature of the data set: biochemical. Type of data set: biochemical. How it is done:
(§1) Ellman’s method was used to determine the activity of the synthesized compounds against AChE from electric eel (Electrophorus electricus, EeAChE) and BuChE from equine serum (EqBuChE).
(§2) All assays were performed in 0.1 M phosphate buffer pH 8.0. The tested compounds or water in a blank sample (25 µL) were incubated with the enzyme (20 µL) for 5 min at 25 °C in buffer (765 µL) prior to starting the reaction. Then, DTNB (20 µL) and ATC (20 µL) were added. […] Each condition was measured in triplicate. The percentages of enzyme inhibition were calculated from the equation 100%—Ai/A0 × 100%, where Ai is the absorbance of a sample with an inhibitor and A0 is the absorbance of a blank sample (100% activity of the enzyme). The IC50 values were calculated using GraphPad Prism 5. Data is expressed as mean ± SEM.

Data set [6] deals with T2, EqBuChE. Nature of the data set: biochemical. How it is done: as §1, §2
The target in data set [7] is T1, EeAChE. Nature of the data set: Kinetic characterization of EeAChE inhibition (Lineweaver–Burk, Cornish–Bowden plots). It counts as biochemical. The note with it: Lineweaver–Burk and Cornish–Bowden plots, ATC 0.067–0.5 mM. The procedure:
Both types of inhibition were further confirmed by Cornish–Bowden plots (S/V vs. [I]) (A. in Supplementary Materials).
To estimate the type of inhibition of EeAChE, the same experimental protocol as reported above (4.3.1) was performed. Different concentrations of the substrate ATC (0.067–0.5 mM) were used to create Lineweaver-Burk plots by plotting the inverse initial velocity (1/V) as a function of the inverse of the substrate concentration (1/[S]). The stock solution of ATC (0.5 mM in a well) was prepared in water and diluted before use to obtained 0.4, 0.3, 0.2, 0.1and 0.067 mM concentrations of substrate. The double reciprocal plots were assessed by a weighted least square analysis that assumed the variance of V to be a constant percentage of V for the entire data set. Each experiment was performed in triplicate. Then, to confirm the mode of inhibition, Cornish-Bowden plots were obtained by plotting S/V (substrate concentration/velocity ratio) versus the inhibitor concentration [I]. Data analysis was performed with GraphPad Prism 5.

Data set [8] addresses T3, Aβ1–42. Nature of the data set: Thioflavin-T fluorometric assay of self-induced Aβ1–42 aggregation. Type of data set: biochemical. The note with it: 10 µM compound, 1.5 µM Aβ1–42; mean ± SD; <10 = defined as not active; read-out: Aβ1–42 Aggreg. % of inhibition. The source says: Mechanisms of Aβ aggregation remain unclear. Besides the self-induced assembly of Aβ, several other factors affect its aggregation, including metal ions, AChE [45], and oxidative stress. Therefore, we evaluated our compounds using the most versatile and commonly used Aβ1–42 aggregation Thioflavin T assay. Seven structurally diverse compounds were selected (one from each subseries) to test their ability to inhibit self-induced Aβ1–42 aggregation.
Thioflavin-T (ThT) fluorometric assay was performed to investigate the effect of the test compounds on the self-aggregation of Aβ1–42. […] Each sample was prepared in quadruplicate, and the DMSO was always at 3%. To quantify amyloid fibril formation, the ThT fluorescence was measured through the bottom of the plate every 180 s at an excitation wavelength of 440 nm and emission wavelength of 490 nm, with the medium continuously shaking between measurements using a 96-well microplate reader (Synergy™ H4, BioTek Instruments, Inc., Winooski, VT, USA). […] The fluorescence intensities at the plateau in the absence and presence of the test compounds were averaged, and the average fluorescence of the corresponding wells at t = 0 h was subtracted.

For data set [9] the following is noted: PAMPA-BBB; for Log Pe: 2 h at 37 °C, means of two replicates; for Prediction of BBB penetration: class from log Pe. The procedure:
For anti-Alzheimer drug candidates, the ability to cross the blood–brain barrier and to enter the central nervous system (CNS) is crucial to achieve their pharmacological target and activity.
The BBB-PAMPA Explorer Test System was purchased from pION Inc. The in vitro permeability through BBB-1 lipid membrane was determined for 7 commercial drugs and the tested compounds. The compounds were dissolved in DMSO (10 mM stock solution) and diluted with Prisma HT buffer (5 µL/1 mL). Then, the […] 96-well microplate was filled with solution of the tested compounds in buffer (200 µL/well). The filter membrane in acceptor 96-well microplate was impregnated with BBB-1 lipid solution (5 µL/well) and the acceptor plate was filled with Brain Sink Buffer (200 µL/well). The acceptor plate was carefully placed on the donor plate to form a sandwich that was left undisturbed for 2 h at 37 °C. After incubation, the donor plate was carefully removed. The concentration of compounds in the acceptor, the donor, and the reference wells were measured using EnSpire Multimode Microplate Reader (PerkinElmer).

T3 sequence (P05067 672-713): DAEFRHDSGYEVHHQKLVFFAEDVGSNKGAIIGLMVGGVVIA
T1 sequence (O42275 24-633): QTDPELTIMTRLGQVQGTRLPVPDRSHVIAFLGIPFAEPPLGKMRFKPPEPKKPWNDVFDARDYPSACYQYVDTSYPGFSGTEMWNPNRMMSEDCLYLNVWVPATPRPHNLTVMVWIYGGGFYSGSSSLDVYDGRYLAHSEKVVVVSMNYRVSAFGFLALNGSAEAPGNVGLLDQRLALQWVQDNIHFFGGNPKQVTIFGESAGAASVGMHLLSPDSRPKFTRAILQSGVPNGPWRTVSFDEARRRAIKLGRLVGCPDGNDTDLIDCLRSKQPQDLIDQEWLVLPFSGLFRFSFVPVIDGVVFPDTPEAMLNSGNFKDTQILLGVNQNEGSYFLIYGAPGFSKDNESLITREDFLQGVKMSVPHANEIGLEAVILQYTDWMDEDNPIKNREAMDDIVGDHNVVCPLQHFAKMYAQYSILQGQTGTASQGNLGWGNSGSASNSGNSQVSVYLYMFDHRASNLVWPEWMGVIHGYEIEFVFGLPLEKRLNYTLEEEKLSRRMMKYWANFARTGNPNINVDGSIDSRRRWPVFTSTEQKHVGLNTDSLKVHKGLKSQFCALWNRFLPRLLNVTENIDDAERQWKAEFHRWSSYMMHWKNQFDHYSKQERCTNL

As a reminder, the IC50 is the point on the concentration scale where inhibition reaches its midpoint. For `O=C1c2ccccc2S(=O)(=O)N1CCCCCNCc1ccccc1` [Compd. II], the IC50 in data set [1] is 36 ± 1 nM; in data set [2], greater than 50000 nM. Further, in data set [3], the “Aβ1–42 Aggreg. % of inhibition” value is reported as 22.19 ± 16.6%.
In the case of `CCN(CC)CCCCCCCCN1C(=O)c2ccccc2C1=O` [Compd. I], the “Aβ12–23 aggregation % of inhibition” value in [4] was 30.10 ± 5.78 ^f %.
In the case of `O=C1c2ccccc2C(=O)N1CCCCCCCN1CCCC1` [Compound 3, 2-(7-(Pyrrolidin-1-yl)heptyl)isoindoline-1,3-dione], the IC50 in data set [5] is 276 ± 3 nM; in [6], greater than 50000 nM. Moreover, the “type of EeAChE inhibition” value in data set [7] is listed as “mixed type of enzyme inhibition”.
As a reminder, the inhibition is how much of the control response was suppressed. Take `O=C1c2ccccc2C(=O)N1CCCCCCCCN1CCCC1` [Compound 4, 2-(8-(Pyrrolidin-1-yl)octyl)isoindoline-1,3-dione]: the inhibition at 10 µM in [8] was determined as 15.2 ± 3.06%. The same compound yielded a half-inhibitory concentration (IC50) in data set [5] of 282 ± 11 nM. Also, in data set [9], the “Log Pe” value is “–4.0” and the “Prediction of BBB penetration” value is recorded as “CNS+ (CNS+, log Pe > −4.5, high permeability (i.e., can enter the CNS))”. Besides, 3240 ± 141 nM corresponded to half-maximal inhibition in data set [6] (IC50). In addition, the “type of EeAChE inhibition” value in data set [7] is “mixed type of enzyme inhibition”.
Regarding `O=C1c2ccccc2C(=O)N1CCCCCCN1CCc2ccccc2C1` [Compound 11, 2-(6-(3,4-dihydroisoquinolin-2(1H)-yl)hexyl)isoindoline-1,3-dione], the IC50 in [5] came out at 387 ± 3 nM; in data set [6], 5120 ± 90 nM. In data set [7], the “type of EeAChE inhibition” value is listed as “mixed type of enzyme inhibition”.
For the compound `O=C1c2ccccc2S(=O)(=O)N1CCCCCNCc1cccc(Cl)c1` [Compound 42, 2-(5-(3-chlorobenzylamino)pentyl)benzo[d]isothiazol-3(2H)-one 1,1-dioxide], the inhibition at 10 µM in data set [8] is 16.5 ± 3.01%. Moreover, the IC50 in data set [5] is 70 ± 1 nM; in data set [6], greater than 50000 nM. Moreover, in data set [9], the “Log Pe” value is given as “–4.3”. The “Prediction of BBB penetration” value in [9] is “CNS+ (CNS+, log Pe > −4.5, high permeability (i.e., can enter the CNS))”. Moreover, the “type of EeAChE inhibition” value in data set [7] was “linear non-competitive type of inhibition”.
